Patent publication US4628059A, “Dopamine-β-hydroxylase inhibitors” (SmithKlein Beckman Corporation, priority 1985, dated 1986)
Where two headings read alike, the source gives them in different places.

Legend:
[1] = target: T1, dopamine-β-hydroxylase (DBH) (Bos taurus, UniProt P15101); test: in vitro DBH inhibition (conversion of tyramine to octopamine, spectrophotometric at 330 nm); assay type: biochemical
T1 sequence (P15101 1-610): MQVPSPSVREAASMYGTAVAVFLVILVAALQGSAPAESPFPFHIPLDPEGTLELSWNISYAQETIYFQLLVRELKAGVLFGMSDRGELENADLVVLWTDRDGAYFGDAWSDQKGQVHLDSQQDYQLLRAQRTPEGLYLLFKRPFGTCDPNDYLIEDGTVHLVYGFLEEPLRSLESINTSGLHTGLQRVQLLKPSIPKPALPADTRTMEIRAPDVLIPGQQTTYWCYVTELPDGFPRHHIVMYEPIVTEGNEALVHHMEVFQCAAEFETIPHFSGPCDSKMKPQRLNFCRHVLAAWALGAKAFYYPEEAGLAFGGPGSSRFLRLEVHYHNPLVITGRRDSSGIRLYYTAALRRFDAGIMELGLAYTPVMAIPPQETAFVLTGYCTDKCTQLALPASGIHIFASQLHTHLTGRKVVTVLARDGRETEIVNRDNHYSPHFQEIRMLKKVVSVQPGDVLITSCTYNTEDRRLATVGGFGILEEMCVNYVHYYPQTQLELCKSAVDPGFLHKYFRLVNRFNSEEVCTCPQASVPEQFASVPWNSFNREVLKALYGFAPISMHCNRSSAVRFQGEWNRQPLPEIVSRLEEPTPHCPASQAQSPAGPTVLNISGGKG
Description: Because the compounds of Formulae I and II inhibit DBH activity, they have therapeutic value as diuretic, natriuretic, cardiotonic, antihypertensive and vasodilator agents, as well as antiulcerogenic agents. Listed in Table I are the compounds of the invention and compounds included in the pharmaceutical compositions of the invention and useful in the methods of the invention that were tested for in vitro DBH inhibition by a standard procedure for assaying conversion of tyramine to octopamine in the presence of DBH. J. J. Pisano, et al., Biochem. Biophys. Acta; 43, 566-568 (1960). Octopamine was assayed following sodium periodate oxidation to p-hydroxybenzaldehyde by measuring spectrophotometric absorbance at 330 nm. In Table I, inhibition is given in molar concentration of compound at which DBH activity was halved (IC50). Melting points (mp) are given in °C.

[2] = test system: spontaneously hypertensive rats; test: mean arterial blood pressure in spontaneously hypertensive rats; assay type: in vivo; conditions: 50 mg/kg intraperitoneally, monitored for 260 minutes, tail artery cannulae
Description: Further, spontaneously hypertensive rats were dosed with a suspension or solution of 4-(3'-fluorobenzyl)-1,2,4-triazole-3-thiol at a dose of 50 mg/kg intraperitoneally, and mean arterial blood pressure was monitored for 260 minutes using indwelling cannulae positioned in the tail arteries.

[3] = test system: peripheral dopamine (DA) and norepinephrine (NE) levels; test: effect in vivo on peripheral dopamine (DA) and norepinephrine (NE) levels; design: species or system spontaneously hypertensive rats; conditions: oral, two doses approx. 18 h apart, sacrificed about 2 h after second dose, fusaric acid 50 mg/kg; for DA / NE: average of groups of five; for DA: control (saline) 0.314; for DA / DA/NE Ratio: * p <.001 for both compounds; for NE: control (saline) 9.98; for DA/NE Ratio: control (saline) 0.0314
Description: One of the compounds of the invention was tested for its effect in vivo on peripheral dopamine (DA) and norepinephrine (NE) levels substantially by the procedure of DaPrada and Zurcher, Life Sciences, 19, 1161, (1976). Groups of five spontaneously hypertensive rats were dosed orally, twice, the second dose approximately 18 hours after the first, and were sacrificed about 2 hours after the second dose.

DBH = conditions: literature, cited from earlier work
[4] = Ehrreich et al., literature; cited from earlier work
[5] = literature; cited from earlier work
[6] = in vitro, tyramine to octopamine conversion, read-out: IC50 (molar concentration of compound at which DBH activity was halved)

IC50 [1, 6] [µM] | Molecule | DBH inhibition (in words) (DBH) | further results
2.7 | Fc1cccc(Cn2cnnc2S)c1 [4-(3'-fluorobenzyl)-1,2,4-triazole-3-thiol] | – | mean arterial blood pressure reduction compared to vehicle-treated controls [2]: statistically significant blood pressure reductions at 60, 140, 160, 200, and 240 minutes; DA [3]: 0.958 µg/g; NE [3]: 8.46 µg/g; DA/NE Ratio [3]: 0.114
24 | Sc1nncn1Cc1ccccc1 [4-benzyl-1,2,4-triazole-3-thiol] | – | –
– | O=C(O)c1ccc(CCC(Br)CBr)cn1 (stereo not shown) [5-(3,4-dibromobutyl)picolinic acid] | DBH inhibitors | –
– | O=C(O)c1ccc(CCCCCl)cn1 [5-(4-chlorobutyl)picolinic acid] | inhibit DBH | –
– | Nc1ccc(C(=O)O)nc1 [5-aminopicolinic acid] | inhibit DBH | –
– | CCCCc1ccc(C(N)=O)nc1 [Bupicomide, 5-(n-butyl)picolinamine] | DBH inhibitor | antihypertensive activity [4]: antihypertensive activity
– | phenylpicolinic acid | – | DBH inhibitory activity relative to fusaric acid (DBH; Runti et al.): twice the inhibitory activity of fusaric acid
1 | Fc1cc(F)cc(Cn2cnnc2S)c1 [4-(3',5'-difluorobenzyl)-1,2,4-triazole-3-thiol] | – | –
19 | COc1c(F)cc(Cn2cnnc2S)cc1F [4-(3',5'-difluoro-4'-methoxybenzyl)-1,2,4-triazole-3-thiol] | – | –
– | NNc1ccc(C(=O)O)nc1 [5-hydrazinopicolinic acid] | inhibit DBH | –
– | CCCC(=O)c1ccc(C(=O)O)nc1 [5-butyroylpicolinic acid] | inhibit DBH | –
– | NNCc1ccccc1 [benzylhydrazine] | apparently act as competitive inhibitors | –
– | CCCCc1ccc(C(=O)O)nc1 [Fusaric acid] | – | IC50 [1]: 0.8 µM; toxicity [5]: hepatotoxic; DA [3]: 0.715 µg/g; NE [3]: 8.19 µg/g; DA/NE Ratio [3]: 0.0875
– | NOCc1ccccc1 [Benzyloxyamine, benzyloxyamine] | apparently act as competitive inhibitors | –
0.02 | Oc1c(F)cc(Cn2cnnc2S)cc1F [4-(3',5'-difluoro-4'-hydroxybenzyl)-1,2,4-triazole-3-thiol] | – | –
– | CN(C)C(=S)SCc1ccc(C(=O)O)nc1 [5-(dimethyldithiocarbamoylmethyl)picolinic acid] | DBH inhibitors | –
